Laboratory results as given in patent publication US5801178A, “Aniline derivative having polyunsaturated fatty acid residue and use thereof” (Nippon Shoji Kaish Ltd., priority 1995, dated 1998).

Key:
[1] = Reduction of cholesterol in blood of cholesterol-loaded rats; assay type: in vivo, Male slc:SD (SPF) rats; conditions: serum total cholesterol; 90 mg/kg/day orally, five days; average of 8 rats; control taken as 100%
Source text: Reduction of cholesterol in blood of rats
Male slc:SD (SPF) rats (4 weeks of age weighing 70-90 g, Japan SLC Inc.) were randomly divided into 8 per group and bred for 3 days on a normal diet (solid diet for test animals, MF, manufactured by Oriental Yeast CO., LTD.). Then, the aforementioned diet supplemented with 5% cholesterol, 10% olive oil and 0.5% cholic acid was freely fed for 10 days. During the last five days, the test compound (Compounds 3-6, 8, 11 and 12) suspended in 0.5% aqueous methylcellulose solution was forcibly administered orally once a day in a dose of 10 ml/kg which contains 90 mg/kg/day of the test compound (total dose of the test compound being 450 mg/kg). The rats were fasted for 16 hours after the final administration and etherized. The blood was taken from the abdominal aorta, and serum was separated by centrifugation to determine the total cholesterol content in the serum. The control group was administered with 0.5% aqueous methylcellulose solution instead of the test compound suspended in 0.5% aqueous methylcellulose solution.
* is an average of 8 rats per group based on the cholesterol content in
blood of control which was taken as 100%.

[2] = molecular target: T1, ACAT derived from human macrophage (Homo sapiens, UniProt P35610); test: Inhibitory activity against ACAT derived from human macrophage (microsomes of TPA-differentiated U937 cells); assay type: biochemical; conditions: for Selectivity: Table 1, rat liver ACAT IC50 / human macrophage ACAT IC50; for IC50: human macrophage (U937/TPA) microsome, pH 7.4, 37° C., 30 minutes
T1 construct: Using, as an enzyme source, microsomal fractions prepared in the manner described below under Preparation of Microsome from U937 cells; endogenous in cells; host or cells: U937 cells differentiated with TPA, microsomal fraction
T1 sequence (P35610 1-550): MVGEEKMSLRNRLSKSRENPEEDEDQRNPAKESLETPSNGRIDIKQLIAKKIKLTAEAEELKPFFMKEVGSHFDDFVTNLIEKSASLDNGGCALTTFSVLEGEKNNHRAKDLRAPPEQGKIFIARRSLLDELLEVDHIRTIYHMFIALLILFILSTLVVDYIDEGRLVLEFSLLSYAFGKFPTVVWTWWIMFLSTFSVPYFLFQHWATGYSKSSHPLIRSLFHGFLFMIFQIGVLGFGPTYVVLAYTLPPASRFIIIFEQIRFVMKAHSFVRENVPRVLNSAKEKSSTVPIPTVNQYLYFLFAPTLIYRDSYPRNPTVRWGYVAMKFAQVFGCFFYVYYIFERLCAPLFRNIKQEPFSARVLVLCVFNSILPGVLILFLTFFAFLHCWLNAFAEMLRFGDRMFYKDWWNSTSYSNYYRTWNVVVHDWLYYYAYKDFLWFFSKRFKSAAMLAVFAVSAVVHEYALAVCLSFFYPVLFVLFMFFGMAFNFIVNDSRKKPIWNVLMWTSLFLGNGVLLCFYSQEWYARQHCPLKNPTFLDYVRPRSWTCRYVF
Experimental: Inhibitory activity against ACAT derived from human macrophage
(§1) Using, as an enzyme source, microsomal fractions prepared in the manner described below under Preparation of Microsome from U937 cells [human monocyte-derived cells known to differentiate into macrophages by the addition of TPA (12-O-tetradecanoylphorbol 13-acetate)] differentiated with TPA, the inhibitory activity against ACAT in the microsome fractions was determined as in the following. The compound of the present invention was dissolved in dimethyl sulfoxide and used as a sample solution. [1-^14 C] […] Ethanol (1 ml) was added to stop the reaction, and n-hexane (4.5 ml) was added. The reaction mixture was centrifuged at 2,000 rpm for 2 minutes and the upper n-hexane layer was separated and recovered, whereby cholesterol oleate (reaction product) was extracted. n-Hexane was evaporated with a nitrogen gas and the residue was re-dissolved in n-hexane (50 μl), which was used as a sample for thin-layer chromatography. […] After developing, the spot of cholesterol oleate was colored with iodine. The spot was cut out and dissolved in a xylene scintillator (Aquasol-2, Daiichi Pure Chemicals Co., Ltd.). The amount of cholesterol oleate was determined with a liquid scintillation counter.
The cells thus scraped and the culture solution were centrifuged at 3,000 rpm for 5 minutes, and the cell fractions obtained as precipitate were once freezed at -70° C. and preserved. The cells preserved at -70° C. were thawed and homogenized at 4° C. in a Teflon homogenizer. The homogenate was centrifuged at 12,000 g for 15 minutes. The precipitate fractions containing nuclea and mitochondria were removed and the obtained supernatant was further centrifuged at 100,000 g for 60 minutes. The supernatant was discarded, and the obtained precipitate fractions were suspended in 150 mM potassium phosphate buffer (pH 7.4) and used as a microsomal fraction.

[3] = test system: ACAT derived from rat liver; test: Inhibitory activity against ACAT derived from rat liver microsome; assay type: biochemical; conditions: pH 7.4, 37° C., 30 minutes
Experimental: Inhibitory activity against ACAT derived from rat liver microsome
as §1, with “source, the” for “source,”, “prepared from rat liver” for “prepared”, “of Microsome,” for “of Microsome from U937 cells [human monocyte-derived cells known to differentiate into macrophages by the addition of TPA (12-O-tetradecanoylphorbol 13-acetate)] differentiated with TPA,”, “re-dissolved dissolved” for “re-dissolved”, “determined using” for “determined with”
The liver was removed from a fasted rat and thoroughly perfused with 0.25M sucrose solution. The liver was weighed, minced with scissors or razor and placed in a Teflon homogenizer. The liver was homogenized with 9 volumes [9 ml per g (wet weight) of liver] of 0.25M sucrose solution or 50 mM Tris-HCl buffer (pH 7.5) containing 0.25M sucrose and 5 mM MgCl2. The homogenate was centrifuged at 8,000-10,000 g for 10-15 minutes. The obtained supernatant was centrifuged at 105,000 g for 60-90 minutes. The sediment obtained from this centrifugation was suspended in 150 mM potassium phosphate buffer (pH 7.4) to give a microsomal fraction.

[4] = Acute toxicity, oral, mice; assay type: in vivo, Male slc:ICR mice
Experimental: Male slc:ICR mice (4 weeks of age, Japan SLC Inc.) were bred for 7 days on a normal diet (solid diet for test animals, Labo MR stock-SLC, manufactured by Japan SLC Inc.). Then, the mice were fasted for 16 hours and divided into 5 per group. The mice were forcibly administered orally with the test compound (Compounds 4, 5 and 9-12) dissolved in corn oil. The mice were further bred on a normal diet for 14 days to observe acute toxicity.

SMILES	Reduction of cholesterol in cholesterol-loaded rats, %* [1] [%]	Selectivity [2]	IC50 [2] [µM]	IC50 [3] [µM]	minimum lethal dose ([4]; single oral administration in corn oil, mice, 14 days observation)	minimum lethal dose ([4]; mouse, in vivo, po, 20160 min)
CCC=CCC=CCC=CCC=CCC=CCC=CCCC(=O)Nc1c(C)cccc1C [Compound 8, N-(2,6-dimethylphenyl)-4,7,10,13,16,19-docosahexaenamide]	77	264	0.28	73.9		
CCC=CCC=CCC=CCC=CCC=CCCCC(=O)Nc1c(C)cc(C)cc1C [Compound 5, N-(2,4,6-trimethylphenyl)-5,8,11,14,17-eicosapentaenamide]	57	47.9	0.9	43.1	≥ 2,000 mg/kg	
CCC=CCC=CCC=CCC=CCC=CCC=CCCC(=O)Nc1c(F)cc(F)cc1F [Compound 4, N-(2,4,6-trifluorophenyl)-4,7,10,13,16,19-docosahexaenamide]	59	> 806	0.62	> 500		≥ 2,000 mg/kg
CCC=CCC=CCC=CCC=CCC=CCCCC(=O)Nc1c(C(C)C)cccc1C(C)C [Compound 11, N-(2,6-diisopropylphenyl)-5,8,11,14,17-eicosapentaenamide]	78	247	0.0097	2.4		
CCC=CCC=CCC=CCC=CCC=CCCCC(=O)Nc1c(F)cc(F)cc1F [Compound 3, N-(2,4,6-trifluorophenyl)-5,8,11,14,17-eicosapentaenamide]	71	> 1852	0.27	> 500		
CCC=CCC=CCC=CCC=CCC=CCC=CCCC(=O)Nc1c(C)cc(C)cc1C [Compound 6, N-(2,4,6-trimethylphenyl)-4,7,10,13,16,19-docosahexaenamide]	68	> 3333	0.15	> 500		
